Data from article PMC12598616, “Design and optimization of caspase-1-responsive fluorescent probes for pyroptosis imaging and anti-pyroptosis drug screening” (Chemical Science, 2025).

Legend:
[1] = system: caspase-4; test: Selectivity of probes: caspase-4; type: biochemical, human; details: caspase-4 2 U/mL, 37 °C, 2 h, λex 510 nm, λem 585 nm
Text: The resin used for SPPS was purchased from GL Biochem (Shanghai, China). Lipopolysaccharide (LPS, L2630), Nigericin and ATP (11140965001) were purchased from Merck (Shanghai, China) and Invitrogen (Shanghai, China), respectively. Cell culture plates were sourced from Wuxi NEST Biotechnology. Recombinant human caspase-1, caspase-3, caspase-4, and caspase-8 were obtained from Abcam and MCE (Shanghai, China). Anti-cleaved caspase-1 antibody, anti-GAPDH antibody, and goat anti-Rabbit/anti-mouse lgG/HRP were purchased from CST (USA) and Beyotime […]
(Shanghai, China). […]
Medical College (ethical approval number ZJCLA-IACUC-20011003). […]
To investigate the sensitivity of the probes for caspase-1, varying concentration of caspase-1 (0, 0.2, 0.4, 0.6, 0.8, 1.0, 1.25, 1.5, 1.75, 2, 2.5, 3 U/mL) were incubated with FPy1 (5 μM), YPy1 (5 μM) and WPy1 (5 μM) respectively in caspase-1 assay buffer (50 mM HEPES, 50 mM NaCl, 0.1 % chaps, 5 % glycerol, 10 mM DTT, 10 mM EDTA) at 37 °C for 2 hours. Fluorescence spectra were recorded using Hitachi F-2700 spectrophotometer with an excitation at 510 nm (Photomultiplier voltage 700 V; Slit widths ex: 10 nm and em =5.0 nm). […] The limit of detection (LoD) was calculated from 3σ/k, in which σ represents the standard deviation of 15 blank measurements. […]
10 nm and em =5.0 nm). The fluorescence intensity of FPy1, YPy1 and WPy1 at 585 nm were plotted separately against […]

[2] = system: Cas-1 in THP-1 cells; test: Confocal fluorescence imaging of Cas-1 in THP-1 cells; type: cell-based; details: for intracellular fluorescence intensity, ATP stimulation / intracellular fluorescence intensity, Nig stimulation: LPS 1 μg/mL 4 h, probe 5 μM 1 h; for intracellular fluorescence intensity, ATP stimulation: then ATP 2 mM 0, 1, 2 h; for intracellular fluorescence intensity, Nig stimulation: then Nig 10 μM 0, 1, 2 h
Experimental: To assess the capability of FPy1 and YPy1 to monitor endogenous Cas-1, the classic NLRP3 inflammasome-mediated Cas-1 activation model was established in THP-1 cells. THP-1 cells were initially stimulated with LPS (1 μg mL^−1) for 4 h to prime the production of NLRP3 inflammasome-associated proteins. Subsequently, the cells were stimulated with Nigericin (Nig, 10 μM) or ATP (2 mM) for various durations to induce the activation of Cas-1 and the pyroptosis-related pathway. The THP-1 cells were further stained with FPy1 or Ypy1 (5 μM) for 1 h and imaged (Fig. 3a). […] Western blot (WB) analysis confirmed that, regardless of whether Nig or ATP was used as the stimulant, the level of activated Cas-1 was consistent with the fluorescence imaging results (Fig. S8a–d). […] Therefore, FPy1 may be a more suitable candidate for monitoring low caspase-1 levels in subsequent imaging studies. […] To investigate the distribution of FPy1 within cells, THP-1 cells were co-stained with FPy1 and commercially available organelle-tracking dyes, including Mito-Tracker Green (mitochondria), Golgi-Tracker Green (Golgi apparatus), Lyso-Tracker Green (lysosomes) and ER-Tracker Green (endoplasmic reticulum). All dyes were imaged in the green fluorescence channel to avoid overlap with the red emission of FPy1 (Fig. 3f–i). […] The corresponding Pearson's correlation coefficients for mitochondria, Golgi apparatus, lysosomes, and endoplasmic reticulum were 0.4954, 0.4320, 0.5682, and 0.4448, respectively. […] To further confirm the specificity of FPy1 for Cas-1 imaging in living cells, THP-1 cells with Cas-1 knockdown via siRNA were constructed. […]
Intracellular imaging with FPy1 in THP-1 cells
THP-1 cells were seeded in dishes and cultured overnight. After stimulation with LPS (1 μg/mL in RPMI 1640 medium) for 4 hours, the cells were further treated with Nig (10 μM) or ATP (2 mM) for 0, 1, 2 hours. The medium was then replaced with fresh medium with FPy1 (5 μM), and cells were incubated at 37 °C for 1 hour before being washed twice […]
with PBS. […]
After washing, the THP-1 cells were separately incubated with commercially available dyes targeting mitochondria (Mito-Tracker Green), lysosomes (Lyso-Tracker Green), endoplasmic reticulum (ER-Tracker Green), and Golgi apparatus (Golgi-Tracker Green) for 30 minutes. […]
Nucleus pulposus spheroid cultivation […]
Intracellular imaging in nucleus pulposus cells and 3D cell spheroids
The primary nucleus pulposus cells or 3D cell spheroids were seeded in dishes and cultured overnight. […]

Substance | fluorescence response to caspase-4 [1] | intracellular fluorescence intensity, ATP stimulation [2] | intracellular fluorescence intensity, Nig stimulation [2] | fluorescence increase relative to YPy1 ([2]; 2 h of Nig or ATP stimulation, probe 5 μM)
–YVADG– [YPy1, caspase-1-responsive FRET probe with recognition peptide –YVADG–; RhoB donor, hNR quencher] | almost no response | increased with prolonged stimulation time | increased with prolonged stimulation time | –
–FLTDG– [FPy1, RhoB donor, hNR quencher] | almost no response | increased with prolonged stimulation time | increased with prolonged stimulation time | slightly higher than that of YPy1
